Measured values: the supplement of paper PMC6335503
± gives the standard deviation of the averaged measurements.

Columns and labels:
Assay in all cases: cell viability, percent of DMSO control (CellTiter-Glo); higher = more viable cells
Conditions in all cases: 72 h
[1] = test system: DFTD cell line T3 (06/0368)
Description: (§1)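 Eight-point dose titration of 41 screen hits in triplicate wells on four Tasmanian devil DFTD tumour cell lines (T1-T4) and devil fibroblasts, 384-well plates. Viability was read by CellTiter-Glo (ATP) after 72 h at 37 °C. Percent of control per plate: DMSO wells = 100%, positive-control wells = 0%.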

[2] = test system: DFTD cell line T4 (07/0192)
Description: as §1

[3] = test system: DFTD cell line T2 (05/2569)
Description: as §1

[4] = test system: DFTD cell line T1 (06/2887)
Description: as §1

Compound	cell viability ([1]; 0.00617 µM)	cell viability ([1]; 0.0185 µM)	cell viability ([1]; 0.0556 µM)	cell viability ([1]; 0.166667 µM)	cell viability ([1]; 0.5 µM)	cell viability ([1]; 1.5 µM)	cell viability ([1]; 4.5 µM)	cell viability ([1]; 13.5 µM)	cell viability ([2]; 0.00617 µM)	cell viability ([2]; 0.0185 µM)	cell viability ([2]; 0.0556 µM)	cell viability ([2]; 0.166667 µM)	cell viability ([2]; 0.5 µM)	cell viability ([2]; 1.5 µM)	cell viability ([2]; 4.5 µM)	cell viability ([2]; 13.5 µM)	cell viability ([3]; 0.00617 µM)	cell viability ([3]; 0.0185 µM)	cell viability ([3]; 0.0556 µM)	cell viability ([3]; 0.166667 µM)	cell viability ([3]; 0.5 µM)	cell viability ([3]; 1.5 µM)	cell viability ([3]; 4.5 µM)	cell viability ([3]; 13.5 µM)	cell viability ([4]; 0.00617 µM)	cell viability ([4]; 0.0185 µM)	cell viability ([4]; 0.0556 µM)	cell viability ([4]; 0.166667 µM)	cell viability ([4]; 0.5 µM)	cell viability ([4]; 1.5 µM)	cell viability ([4]; 4.5 µM)	cell viability ([4]; 13.5 µM)
CC#CC(=O)Nc1ccc2ncnc(Nc3cccc(Br)c3)c2c1	95.8 ± 5.2%	105 ± 20%	108 ± 30%	76.6 ± 10%	65.5 ± 12%	38.7 ± 7%	28.4 ± 4.2%	18.3 ± 9.3%	81.6 ± 19%	98.5 ± 10%	106 ± 20%	73.9 ± 11%	50.7 ± 1.8%	22.7 ± 13%	13.5 ± 5.1%	4.04 ± 10%	99.6 ± 5.3%	85 ± 13%	101 ± 18%	84 ± 5.7%	84.5 ± 1%	44.6 ± 5.5%	30.3 ± 8.2%	33.4 ± 7.6%	94 ± 1.7%	95.5 ± 10%	79.5 ± 27%	63.3 ± 5.6%	40.9 ± 1.1%	21.1 ± 9.7%	14.8 ± 1.1%	12.3 ± 6.3%
COc1cc2ncnc(Nc3ccc(Cl)cc3F)c2cc1OC	120 ± 13%	89.3 ± 13%	119 ± 19%	97.1 ± 20%	85.5 ± 8.9%	66.1 ± 8.5%	43.7 ± 8.6%	47.2 ± 1.9%	116 ± 7.2%	99.5 ± 7.3%	119 ± 36%	97 ± 12%	93.8 ± 12%	75.3 ± 13%	45 ± 6.2%	35.2 ± 3.8%	105 ± 20%	86.8 ± 13%	112 ± 22%	116 ± 35%	85.2 ± 24%	59.5 ± 9.7%	27.6 ± 4.8%	28.3 ± 5%	98.4 ± 38%	95.7 ± 3.3%	124 ± 36%	110 ± 31%	83.1 ± 28%	44.3 ± 8.7%	26.7 ± 7.2%	36.9 ± 1.4%
COc1cc2ncnc(Nc3cccc(Br)c3)c2cc1OC.Cl	127 ± 22%	90.2 ± 19%	118 ± 9.9%	108 ± 7.1%	89.1 ± 20%	49 ± 2.4%	39.8 ± 1.5%	30.8 ± 7.7%	126 ± 14%	94 ± 30%	105 ± 1.4%	104 ± 9.2%	91 ± 33%	48.8 ± 3.7%	28.6 ± 4.1%	17.7 ± 5.7%	115 ± 13%	106 ± 32%	106 ± 25%	107 ± 11%	77 ± 26%	40.7 ± 2.4%	32.9 ± 7.8%	21.2 ± 5.5%	126 ± 20%	99 ± 21%	112 ± 21%	111 ± 19%	63 ± 27%	24.8 ± 4.3%	22.8 ± 4.8%	12.4 ± 4%
COc1cccc2c1C(=O)c1c(O)c3c(c(O)c1C2=O)C[C@@](O)(C(=O)CO)C[C@@H]3O[C@H]1C[C@H](N)[C@@H](O)[C@H](C)O1.Cl	124 ± 11%	110 ± 44%	96.2 ± 12%	81.9 ± 18%	63.8 ± 6.6%	19.3 ± 3.4%	5.78 ± 4.9%	-4.2 ± 4.2%	118 ± 30%	97.7 ± 28%	89.8 ± 12%	67.5 ± 13%	57.2 ± 10%	-4.01 ± 4.5%	-5.27 ± 1.6%	-4.94 ± 4.3%	116 ± 3.2%	105 ± 38%	107 ± 8.6%	79.4 ± 6.3%	68.9 ± 3.2%	22.8 ± 5%	-4.77 ± 4%	-10.2 ± 3.1%	127 ± 20%	96.8 ± 35%	94.5 ± 5%	66.7 ± 14%	60.6 ± 6.7%	-2.32 ± 3.8%	-3.85 ± 4.9%	-11.8 ± 0.8%
COc1cccc2c1C(=O)c1c(O)c3c(c(O)c1C2=O)C[C@@](O)(C(=O)CO)C[C@@H]3O[C@H]1C[C@H](N)[C@H](O)[C@H](C)O1.Cl	101 ± 18%	102 ± 5.6%	97.9 ± 17%	95.8 ± 19%	60.3 ± 11%	45 ± 4.4%	1.01 ± 0.94%	2.64 ± 8.3%	110 ± 16%	98 ± 4.9%	89.9 ± 30%	91.9 ± 4.3%	43.8 ± 15%	24.2 ± 7%	-1.02 ± 1.8%	1.84 ± 5.4%	118 ± 33%	107 ± 14%	90.9 ± 19%	97.9 ± 18%	60.3 ± 14%	33.7 ± 8.7%	-0.292 ± 4.4%	-2.07 ± 4.8%	106 ± 19%	112 ± 28%	94.2 ± 8.7%	95.5 ± 18%	61.2 ± 8.2%	32.2 ± 2.5%	1.1 ± 6.5%	-3.65 ± 5%
COc1cc2ncnc(Nc3ccc(F)c(Cl)c3)c2cc1NC(=O)/C=C/CN1CCCCC1	108 ± 16%	97.5 ± 14%	91.6 ± 18%	77.7 ± 1.5%	39.7 ± 5.3%	38.3 ± 3.5%	27.9 ± 7%	-10.9 ± 5.5%	107 ± 7.5%	96.2 ± 33%	88 ± 13%	77.2 ± 1.9%	25 ± 6.3%	26.5 ± 3.8%	11.7 ± 14%	-11.1 ± 6%	112 ± 30%	95.2 ± 46%	106 ± 12%	90.6 ± 2.5%	81.1 ± 22%	51 ± 8.7%	49.8 ± 13%	50.5 ± 13%	97.4 ± 26%	108 ± 39%	94.3 ± 19%	58.2 ± 6.1%	36.2 ± 4%	27.5 ± 6.9%	30.8 ± 20%	19.8 ± 14%
CS(=O)(=O)CCNCc1ccc(-c2ccc3ncnc(Nc4ccc(OCc5cccc(F)c5)c(Cl)c4)c3c2)o1.Cc1ccc(S(=O)(=O)O)cc1	96 ± 14%	105 ± 4.2%	99.2 ± 22%	97.4 ± 13%	63 ± 14%	54.1 ± 6%	42.2 ± 2.4%	40.8 ± 22%	102 ± 3.8%	123 ± 22%	101 ± 20%	91.8 ± 9.4%	62.7 ± 8.4%	46.1 ± 8%	22.1 ± 4.5%	28.7 ± 14%	109 ± 37%	114 ± 20%	98.2 ± 27%	117 ± 23%	83.3 ± 12%	44.3 ± 7.7%	35.8 ± 6.4%	32.3 ± 14%	127 ± 30%	119 ± 34%	87.5 ± 10%	102 ± 13%	46.3 ± 14%	28.1 ± 1.4%	24 ± 4.6%	31.8 ± 14%
Cn1nc(-c2ccccn2)nc2c(=O)n(C)c(=O)nc1-2	117 ± 31%	94.9 ± 27%	119 ± 9.9%	126 ± 16%	107 ± 26%	72.9 ± 4.2%	-7.67 ± 4%	-1.39 ± 4.7%	141 ± 24%	92.9 ± 34%	114 ± 12%	109 ± 11%	118 ± 31%	74.2 ± 14%	-7.19 ± 8.8%	0.999 ± 4.1%	135 ± 19%	102 ± 31%	104 ± 19%	124 ± 18%	132 ± 42%	84.5 ± 6.9%	-4.38 ± 1.7%	-0.281 ± 3.3%	153 ± 34%	70.2 ± 59%	125 ± 22%	132 ± 5%	135 ± 44%	81.7 ± 2.8%	-6.25 ± 9.7%	0.0591 ± 4.2%
C=CC(=O)N1CCC[C@@H](n2nc(-c3ccc(Oc4ccccc4)cc3)c3c(N)ncnc32)C1	120 ± 38%	94.2 ± 29%	95.2 ± 22%	65.1 ± 9.7%	38.9 ± 6.9%	36.7 ± 11%	34.5 ± 8.3%	24.5 ± 11%	114 ± 25%	85 ± 27%	79.7 ± 14%	51.3 ± 9.8%	22.6 ± 4.5%	20.4 ± 12%	21.4 ± 8.5%	12.3 ± 8.3%	103 ± 33%	124 ± 36%	83.4 ± 14%	51.2 ± 12%	32.3 ± 1.1%	29.5 ± 6.4%	30 ± 9.6%	17.3 ± 12%	112 ± 37%	123 ± 32%	71.6 ± 14%	37.3 ± 6.5%	26.6 ± 4.3%	23.2 ± 11%	28.6 ± 13%	14 ± 10%
O=c1c(=NNc2nnn[nH]2)c(=O)c2ccccc12	123 ± 33%	108 ± 57%	105 ± 18%	110 ± 22%	99.8 ± 8.1%	-0.871 ± 9.3%	-0.369 ± 11%	-6.58 ± 12%	112 ± 34%	109 ± 63%	107 ± 15%	113 ± 5.9%	99.9 ± 11%	-4.87 ± 8%	-0.683 ± 8.2%	-9.39 ± 10%	114 ± 14%	133 ± 22%	102 ± 25%	96.4 ± 15%	89.2 ± 11%	1.91 ± 9.7%	-2.74 ± 7.9%	-6.89 ± 10%	111 ± 30%	134 ± 16%	108 ± 24%	109 ± 13%	100 ± 8.9%	6.85 ± 14%	-3.59 ± 8.9%	-9.34 ± 11%
CCN1CCN(Cc2ccc(-c3cc4c(N[C@H](C)c5ccccc5)ncnc4[nH]3)cc2)CC1 [AEE788]	93.5 ± 15%	110 ± 21%	123 ± 27%	77.2 ± 11%	49.8 ± 13%	34.2 ± 11%	36.4 ± 13%	28.6 ± 4.9%	99.1 ± 11%	90 ± 14%	104 ± 35%	83.8 ± 10%	43.4 ± 4.7%	25.1 ± 11%	24.8 ± 12%	23.4 ± 5.6%	77.9 ± 14%	96 ± 16%	123 ± 38%	85.2 ± 15%	46.3 ± 12%	25.8 ± 7.8%	21 ± 7%	6.37 ± 3.9%	77.9 ± 22%	87.5 ± 17%	119 ± 44%	61.2 ± 11%	35.4 ± 11%	23.9 ± 7.3%	29.4 ± 13%	17.5 ± 3.5%
COc1cc2ncnc(Nc3cccc(Cl)c3)c2cc1OC [AG-1478]	125 ± 31%	105 ± 3.8%	103 ± 18%	117 ± 16%	83.2 ± 17%	63.5 ± 11%	53.2 ± 13%	46.9 ± 9.5%	119 ± 21%	110 ± 20%	104 ± 24%	128 ± 18%	89.3 ± 22%	68.1 ± 18%	38 ± 7%	32.3 ± 11%	99.4 ± 20%	105 ± 21%	108 ± 13%	114 ± 12%	81 ± 12%	49.2 ± 11%	40.2 ± 16%	34 ± 5.2%	117 ± 7.2%	115 ± 7.9%	106 ± 36%	109 ± 19%	54.7 ± 7.8%	39.2 ± 9.1%	32.7 ± 11%	28.9 ± 9.3%
COc1cc2ncnc(Nc3cccc(Cl)c3F)c2cc1OC(=O)N1CCN(C)C[C@H]1C [AZD3759]	96.2 ± 18%	89.5 ± 4.7%	122 ± 15%	107 ± 34%	76.4 ± 20%	52.8 ± 6.2%	37.7 ± 7%	41.7 ± 7.3%	102 ± 12%	96.5 ± 23%	111 ± 24%	109 ± 10%	78.4 ± 14%	55 ± 5.2%	28.7 ± 6.5%	25 ± 3.8%	97.6 ± 42%	107 ± 12%	131 ± 45%	121 ± 35%	81.8 ± 18%	48.9 ± 4.4%	22.9 ± 7.3%	32 ± 4.3%	96.9 ± 29%	110 ± 19%	113 ± 33%	95.3 ± 21%	59.1 ± 10%	38.1 ± 7.5%	22.6 ± 2.7%	31.5 ± 6.1%
CNC(=O)CN1CCC(Oc2cc3c(Nc4cccc(Cl)c4F)ncnc3cc2OC)CC1 [AZD8931 (Sapitinib)]	112 ± 38%	95.2 ± 19%	102 ± 44%	55.9 ± 17%	43.4 ± 17%	29 ± 7.6%	24.9 ± 10%	32.6 ± 2.4%	107 ± 17%	111 ± 31%	80.8 ± 34%	59.7 ± 10%	31.9 ± 5%	20.9 ± 16%	14 ± 10%	8.86 ± 12%	123 ± 62%	111 ± 22%	98.5 ± 55%	62.1 ± 16%	46.5 ± 18%	27 ± 13%	19.7 ± 17%	24.2 ± 2.2%	116 ± 38%	104 ± 20%	84 ± 28%	37.9 ± 12%	24.9 ± 7.9%	22.8 ± 14%	19.1 ± 16%	21.6 ± 6.3%
